Assays:
[1] = molecular target: CDK4/Cyclin D3 (Homo sapiens) (UniProt P11802+P30281); test: Inhibition of wild-type human full length CDK4/cyclinD3 (M1 to E303 residues) expressed in mammalian expression system assessed as residual activity at 1 uM by Kinomescan method relative to control
[2] = molecular target: Cyclin-dependent kinase 9 (Homo sapiens) (UniProt P50750); test: Inhibition of wild-type human full length CDK9 (M1 to F372 residues) expressed in bacterial expression system assessed as residual activity at 1 uM by Kinomescan method relative to control
[3] = molecular target: Aurora kinase A (Homo sapiens) (UniProt O14965); test: Inhibition of wild-type human partial length AURKA (E122 to K401 residues) expressed in mammalian expression system assessed as residual activity at 1 uM by Kinomescan method relative to control
[4] = tested on: Tyrosine-protein kinase ABL1 (Homo sapiens), P00519 [H396P]; test: Inhibition of human non-phosphorylated ABL1 H396P mutant (S229 to K512 residues) expressed in mammalian expression system assessed as residual activity at 1 uM by Kinomescan method relative to control
[5] = molecular target: Cyclin-dependent kinase 4 (Homo sapiens) (UniProt P11802); test: Inhibition of wild-type human full length CDK4 (M1 to E303 residues) expressed in mammalian expression system assessed as residual activity at 1 uM by Kinomescan method relative to control
[6] = molecular target: Cyclin-dependent kinase 2 homolog (Plasmodium falciparum (isolate 3D7)) (UniProt P61075); test: Inhibition of wild-type Plasmodium falciparum isolate 3D7 full length PK5 (M1 to N288 residues) expressed in mammalian expression system assessed as residual activity at 1 uM by Kinomescan method relative to control
[7] = molecular target: Homeodomain-interacting protein kinase 3 (Homo sapiens) (UniProt Q9H422); test: Inhibition of wild-type human partial length HIPK3 (M153 to N562 residues) expressed in mammalian expression system assessed as residual activity at 1 uM by Kinomescan method relative to control
[8] = molecular target: BDNF/NT-3 growth factors receptor (Homo sapiens) (UniProt Q16620); test: Inhibition of wild-type human partial length TRKB (Q547 to G838 residues) expressed in mammalian expression system assessed as residual activity at 1 uM by Kinomescan method relative to control
[9] = tested on: Receptor-type tyrosine-protein kinase FLT3 (Homo sapiens), P36888 [K663Q]; test: Inhibition of human partial length FLT3 K663Q mutant (V592 to Y969 residues) expressed in bacterial expression system assessed as residual activity at 1 uM by Kinomescan method relative to control
[10] = molecular target: Mitogen-activated protein kinase 15 (Homo sapiens) (UniProt Q8TD08); test: Inhibition of wild-type human partial length ERK8 (M1 to P437 residues) expressed in bacterial expression system assessed as residual activity at 1 uM by Kinomescan method relative to control
[11] = molecular target: Fibroblast growth factor receptor 4 (Homo sapiens) (UniProt P22455); test: Inhibition of wild-type human partial length FGFR4 (G402 to E713 residues) expressed in bacterial expression system assessed as residual activity at 1 uM by Kinomescan method relative to control
[12] = tested on: PBMC; test: Cytotoxicity against PBMC (unknwon origin); type: cell-based
[13] = molecular target: Proto-oncogene tyrosine-protein kinase ROS (Homo sapiens) (UniProt P08922); test: Inhibition of wild-type human partial length ROS1 (A1921 to N2240 residues) expressed in bacterial expression system assessed as residual activity at 1 uM by Kinomescan method relative to control
[14] = molecular target: Myosin light chain kinase, smooth muscle (Homo sapiens) (UniProt Q15746); test: Inhibition of wild-type human full length MYLK (M854 to E1845 residues) expressed in mammalian expression system assessed as residual activity at 1 uM by Kinomescan method relative to control
[15] = molecular target: Mitogen-activated protein kinase 14 (Homo sapiens) (UniProt Q16539); test: Inhibition of wild-type human full length p38-alpha (M1 to S360 residues) expressed in bacterial expression system assessed as residual activity at 1 uM by Kinomescan method relative to control
[16] = molecular target: Interferon-induced, double-stranded RNA-activated protein kinase (Homo sapiens) (UniProt P19525); test: Inhibition of wild-type human partial length PRKR (F247 to C551 residues) expressed in bacterial expression system assessed as residual activity at 1 uM by Kinomescan method relative to control
[17] = tested on: Tyrosine-protein kinase ABL1 (Homo sapiens), P00519 [Q252H]; test: Inhibition of human non-phosphorylated ABL1 Q252H mutant (S229 to K512 residues) expressed in mammalian expression system assessed as residual activity at 1 uM by Kinomescan method relative to control
[18] = molecular target: Serine/threonine-protein kinase 25 (Homo sapiens) (UniProt O00506); test: Inhibition of wild-type human partial length YSK1 (V14 to H295 residues) expressed in bacterial expression system assessed as residual activity at 1 uM by Kinomescan method relative to control
[19] = molecular target: cGMP-dependent protein kinase 1 (Homo sapiens) (UniProt Q13976); test: Inhibition of wild-type human partial length PRKG1 (L339 to F686 residues) expressed in bacterial expression system assessed as residual activity at 1 uM by Kinomescan method relative to control
[20] = tested on: Phosphatidylinositol 4,5-bisphosphate 3-kinase catalytic subunit alpha isoform (Homo sapiens), P42336 [H1047Y]; test: Inhibition of human partial length PIK3CA H1047Y mutant (R108 to N1068 residues) expressed in mammalian expression system assessed as residual activity at 1 uM by Kinomescan method relative to control
[21] = molecular target: Tyrosine-protein kinase ABL1 (Homo sapiens) (UniProt P00519); test: Inhibition of wild-type human non-phosphorylated ABL1 (S229 to K512 residues) expressed in mammalian expression system assessed as residual activity at 1 uM by Kinomescan method relative to control
[22] = molecular target: Casein kinase II subunit alpha (Homo sapiens) (UniProt P68400); test: Inhibition of wild-type human full length CSNK2A1 (M1 to Q391 residues) expressed in mammalian expression system assessed as residual activity at 1 uM by Kinomescan method relative to control
[23] = molecular target: Mitogen-activated protein kinase 11 (Homo sapiens) (UniProt Q15759); test: Inhibition of wild-type human full length p38-beta (M1 to Q364 residues) expressed in bacterial expression system assessed as residual activity at 1 uM by Kinomescan method relative to control
[24] = molecular target: Serine/threonine-protein kinase D2 (Homo sapiens) (UniProt Q9BZL6); test: Inhibition of wild-type human partial length PRKD2 (A519 to E838 residues) expressed in bacterial expression system assessed as residual activity at 1 uM by Kinomescan method relative to control
[25] = molecular target: Phosphatidylinositol 4-kinase beta (Homo sapiens) (UniProt Q9UBF8); test: Inhibition of wild-type human full length PIK4CB (M1 to M828 residues) expressed in mammalian expression system assessed as residual activity at 1 uM by Kinomescan method relative to control
Phosphatidylinositol 4-kinase beta (Homo sapiens), sequence (Q9UBF8 2-816 limits assumed): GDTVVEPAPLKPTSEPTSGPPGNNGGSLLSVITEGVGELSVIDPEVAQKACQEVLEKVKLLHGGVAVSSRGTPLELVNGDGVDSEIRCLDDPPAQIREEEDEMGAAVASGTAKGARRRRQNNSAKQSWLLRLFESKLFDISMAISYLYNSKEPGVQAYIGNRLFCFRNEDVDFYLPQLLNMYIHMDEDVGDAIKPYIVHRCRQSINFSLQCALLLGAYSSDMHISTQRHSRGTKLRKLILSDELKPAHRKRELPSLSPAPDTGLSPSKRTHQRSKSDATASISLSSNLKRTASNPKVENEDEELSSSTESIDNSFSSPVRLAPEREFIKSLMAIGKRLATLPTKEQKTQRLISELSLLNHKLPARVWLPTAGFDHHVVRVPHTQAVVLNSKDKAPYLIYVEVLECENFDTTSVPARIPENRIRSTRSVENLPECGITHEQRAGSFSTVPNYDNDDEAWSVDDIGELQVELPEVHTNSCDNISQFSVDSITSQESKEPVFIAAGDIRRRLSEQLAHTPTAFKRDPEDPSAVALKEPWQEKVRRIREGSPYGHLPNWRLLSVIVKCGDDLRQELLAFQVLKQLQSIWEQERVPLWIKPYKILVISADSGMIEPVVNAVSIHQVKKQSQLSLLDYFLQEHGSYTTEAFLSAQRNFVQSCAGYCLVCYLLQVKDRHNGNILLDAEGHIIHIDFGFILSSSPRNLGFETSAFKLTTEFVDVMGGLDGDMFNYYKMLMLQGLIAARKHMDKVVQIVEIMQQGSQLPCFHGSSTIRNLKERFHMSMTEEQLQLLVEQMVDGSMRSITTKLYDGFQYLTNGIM

Cyclin-dependent kinase 4 (Homo sapiens), sequence (P11802 whole entry, the tested form may be a part): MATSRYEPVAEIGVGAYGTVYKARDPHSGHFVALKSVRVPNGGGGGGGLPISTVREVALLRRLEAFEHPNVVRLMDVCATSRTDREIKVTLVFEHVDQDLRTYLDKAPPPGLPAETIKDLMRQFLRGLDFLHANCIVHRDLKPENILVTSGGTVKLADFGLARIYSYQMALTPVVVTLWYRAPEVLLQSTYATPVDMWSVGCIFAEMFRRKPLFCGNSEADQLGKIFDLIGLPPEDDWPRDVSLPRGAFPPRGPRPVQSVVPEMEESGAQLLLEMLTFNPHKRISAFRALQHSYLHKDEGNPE
Mitogen-activated protein kinase 11 (Homo sapiens), sequence (Q15759 whole entry, the tested form may be a part): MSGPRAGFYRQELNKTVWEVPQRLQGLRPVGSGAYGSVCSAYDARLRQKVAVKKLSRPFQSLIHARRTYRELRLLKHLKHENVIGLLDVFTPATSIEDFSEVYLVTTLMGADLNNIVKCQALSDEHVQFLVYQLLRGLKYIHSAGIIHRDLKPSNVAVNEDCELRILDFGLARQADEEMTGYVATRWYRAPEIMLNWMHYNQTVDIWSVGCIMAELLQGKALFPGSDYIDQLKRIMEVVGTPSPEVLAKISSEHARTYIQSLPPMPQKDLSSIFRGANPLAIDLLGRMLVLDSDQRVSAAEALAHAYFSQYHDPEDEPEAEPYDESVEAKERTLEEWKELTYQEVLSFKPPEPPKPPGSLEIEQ
Serine/threonine-protein kinase D2 (Homo sapiens), sequence (Q9BZL6 whole entry, the tested form may be a part): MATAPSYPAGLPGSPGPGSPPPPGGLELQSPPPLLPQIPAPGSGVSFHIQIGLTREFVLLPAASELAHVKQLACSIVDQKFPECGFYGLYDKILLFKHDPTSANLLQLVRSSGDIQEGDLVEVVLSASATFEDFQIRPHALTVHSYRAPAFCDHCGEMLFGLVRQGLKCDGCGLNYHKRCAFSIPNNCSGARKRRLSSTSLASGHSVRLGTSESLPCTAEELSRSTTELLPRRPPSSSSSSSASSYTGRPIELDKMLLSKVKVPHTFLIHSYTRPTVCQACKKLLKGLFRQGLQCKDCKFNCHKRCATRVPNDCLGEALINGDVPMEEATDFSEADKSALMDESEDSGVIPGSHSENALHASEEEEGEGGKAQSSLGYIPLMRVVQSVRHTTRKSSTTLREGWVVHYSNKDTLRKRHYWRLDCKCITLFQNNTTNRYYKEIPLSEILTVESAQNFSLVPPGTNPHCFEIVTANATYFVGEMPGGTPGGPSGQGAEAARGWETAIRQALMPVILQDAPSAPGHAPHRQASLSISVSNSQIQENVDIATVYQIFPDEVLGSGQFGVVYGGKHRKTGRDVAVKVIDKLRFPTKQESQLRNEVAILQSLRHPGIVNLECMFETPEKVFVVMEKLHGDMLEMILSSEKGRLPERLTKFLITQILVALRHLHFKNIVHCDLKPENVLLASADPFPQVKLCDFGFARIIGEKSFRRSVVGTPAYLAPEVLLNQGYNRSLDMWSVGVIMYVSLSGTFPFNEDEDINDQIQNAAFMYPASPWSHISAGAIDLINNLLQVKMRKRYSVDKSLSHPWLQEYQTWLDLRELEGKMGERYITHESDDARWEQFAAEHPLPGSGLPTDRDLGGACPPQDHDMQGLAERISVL
Casein kinase II subunit alpha (Homo sapiens), sequence (P68400 whole entry, looked up, the tested form may be a part): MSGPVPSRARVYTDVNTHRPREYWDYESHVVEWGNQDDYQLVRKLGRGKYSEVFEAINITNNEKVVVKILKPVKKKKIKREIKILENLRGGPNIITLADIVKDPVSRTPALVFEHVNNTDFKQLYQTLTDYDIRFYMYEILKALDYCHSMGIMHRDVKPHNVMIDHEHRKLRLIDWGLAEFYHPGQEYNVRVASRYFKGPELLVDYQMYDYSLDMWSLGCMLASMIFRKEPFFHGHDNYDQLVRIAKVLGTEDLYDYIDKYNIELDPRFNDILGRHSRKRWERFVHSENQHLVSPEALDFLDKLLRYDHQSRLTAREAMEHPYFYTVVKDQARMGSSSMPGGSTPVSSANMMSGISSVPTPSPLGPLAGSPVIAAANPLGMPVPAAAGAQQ
BDNF/NT-3 growth factors receptor (Homo sapiens), sequence (Q16620 32-822 limits assumed): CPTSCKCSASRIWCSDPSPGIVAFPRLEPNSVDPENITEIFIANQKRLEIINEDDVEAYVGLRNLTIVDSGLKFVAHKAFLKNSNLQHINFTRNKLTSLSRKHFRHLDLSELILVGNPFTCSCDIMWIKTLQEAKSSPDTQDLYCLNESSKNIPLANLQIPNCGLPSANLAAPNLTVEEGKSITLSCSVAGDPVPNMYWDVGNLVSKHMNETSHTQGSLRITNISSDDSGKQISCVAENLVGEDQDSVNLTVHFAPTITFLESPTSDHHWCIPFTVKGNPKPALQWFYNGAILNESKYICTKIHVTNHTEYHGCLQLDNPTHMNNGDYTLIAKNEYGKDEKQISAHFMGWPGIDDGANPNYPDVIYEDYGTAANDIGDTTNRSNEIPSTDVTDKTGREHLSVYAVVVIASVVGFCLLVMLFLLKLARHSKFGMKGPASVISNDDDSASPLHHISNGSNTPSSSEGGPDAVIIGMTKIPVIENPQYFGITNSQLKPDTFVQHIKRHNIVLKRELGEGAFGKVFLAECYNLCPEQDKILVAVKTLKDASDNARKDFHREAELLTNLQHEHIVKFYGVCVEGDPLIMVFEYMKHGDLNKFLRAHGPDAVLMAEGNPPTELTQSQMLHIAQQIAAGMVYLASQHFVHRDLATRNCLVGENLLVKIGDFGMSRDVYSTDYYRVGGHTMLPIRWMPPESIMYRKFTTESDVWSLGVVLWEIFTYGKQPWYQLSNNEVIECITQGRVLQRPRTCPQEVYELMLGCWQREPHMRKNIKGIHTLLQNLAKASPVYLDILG
Cyclin-dependent kinase 9 (Homo sapiens), sequence (P50750 whole entry, the tested form may be a part): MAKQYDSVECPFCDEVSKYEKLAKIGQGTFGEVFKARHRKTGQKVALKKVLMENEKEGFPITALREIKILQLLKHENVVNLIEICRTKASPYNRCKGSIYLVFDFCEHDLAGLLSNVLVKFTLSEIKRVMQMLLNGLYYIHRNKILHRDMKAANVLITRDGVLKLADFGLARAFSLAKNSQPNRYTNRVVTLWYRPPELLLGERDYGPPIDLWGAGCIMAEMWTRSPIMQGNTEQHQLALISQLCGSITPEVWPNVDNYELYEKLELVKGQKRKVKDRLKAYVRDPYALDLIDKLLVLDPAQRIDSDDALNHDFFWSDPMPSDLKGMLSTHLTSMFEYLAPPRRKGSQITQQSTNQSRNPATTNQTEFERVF
Aurora kinase A (Homo sapiens), sequence (O14965 whole entry, the tested form may be a part): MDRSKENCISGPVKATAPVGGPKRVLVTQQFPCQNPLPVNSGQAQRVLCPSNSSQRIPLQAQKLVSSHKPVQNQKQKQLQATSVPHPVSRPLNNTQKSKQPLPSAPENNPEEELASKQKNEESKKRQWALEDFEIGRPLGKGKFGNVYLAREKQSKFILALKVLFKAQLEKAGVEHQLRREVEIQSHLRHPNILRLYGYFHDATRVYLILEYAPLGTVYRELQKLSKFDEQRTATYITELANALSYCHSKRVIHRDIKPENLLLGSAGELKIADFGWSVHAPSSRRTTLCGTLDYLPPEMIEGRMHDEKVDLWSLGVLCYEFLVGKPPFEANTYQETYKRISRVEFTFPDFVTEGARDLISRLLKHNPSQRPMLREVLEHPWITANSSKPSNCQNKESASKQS
Mitogen-activated protein kinase 15 (Homo sapiens), sequence (Q8TD08 whole entry, the tested form may be a part): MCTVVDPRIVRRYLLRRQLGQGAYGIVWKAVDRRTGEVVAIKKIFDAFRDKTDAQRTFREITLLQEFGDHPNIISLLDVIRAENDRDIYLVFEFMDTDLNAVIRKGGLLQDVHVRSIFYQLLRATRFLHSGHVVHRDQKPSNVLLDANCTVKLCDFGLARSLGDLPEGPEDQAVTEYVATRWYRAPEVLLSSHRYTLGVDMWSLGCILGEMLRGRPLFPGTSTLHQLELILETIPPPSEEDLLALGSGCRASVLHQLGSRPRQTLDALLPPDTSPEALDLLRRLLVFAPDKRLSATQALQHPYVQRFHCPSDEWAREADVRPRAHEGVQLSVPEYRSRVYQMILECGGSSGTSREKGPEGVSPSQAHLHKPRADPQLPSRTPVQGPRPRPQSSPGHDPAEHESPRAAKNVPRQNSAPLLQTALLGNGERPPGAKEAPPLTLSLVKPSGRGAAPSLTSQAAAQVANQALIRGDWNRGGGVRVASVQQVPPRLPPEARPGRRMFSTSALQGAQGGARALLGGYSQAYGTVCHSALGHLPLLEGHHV

C=CC(=O)Nc1cc(Nc2cc(-c3cccc(NC(=O)c4ccc(C(C)(C)C)cc4)c3C)cn(C)c2=O)ccc1C(=O)N1CCOCC1
Activity [1]: 100% | Activity [2]: 99% | Activity [3]: 61% | Activity [4]: 100% | Activity [5]: 100% | Activity [6]: 88% | Activity [7]: 100% | Activity [8]: 80% | Activity [9]: 94% | Activity [10]: 100% | Activity [11]: 84% | Activity [12]: Non-Toxic | Activity [13]: 100% | Activity [14]: 100% | Activity [15]: 100% | Activity [16]: 100% | Activity [17]: 100% | Activity [18]: 96% | Activity [19]: 95% | Activity [20]: 91% | Activity [21]: 100% | Activity [22]: 100% | Activity [23]: 100% | Activity [24]: 100% | Activity [25]: 90%
